Assay results taken from publication PMC3328449, “Inhibition of Diacylglycerol–Sensitive TRPC Channels by Synthetic and Natural Steroids” (PLoS ONE, 2012).
“And” between values parts separate entries of the source, which are not always exact repeats. Equal values may be shown once.

Target: T1, hTRPC3 (Homo sapiens, UniProt Q13507)
T1 construct: expressed in transfected cells
T1 sequence (Q13507 1-848 isoform Q13507-3): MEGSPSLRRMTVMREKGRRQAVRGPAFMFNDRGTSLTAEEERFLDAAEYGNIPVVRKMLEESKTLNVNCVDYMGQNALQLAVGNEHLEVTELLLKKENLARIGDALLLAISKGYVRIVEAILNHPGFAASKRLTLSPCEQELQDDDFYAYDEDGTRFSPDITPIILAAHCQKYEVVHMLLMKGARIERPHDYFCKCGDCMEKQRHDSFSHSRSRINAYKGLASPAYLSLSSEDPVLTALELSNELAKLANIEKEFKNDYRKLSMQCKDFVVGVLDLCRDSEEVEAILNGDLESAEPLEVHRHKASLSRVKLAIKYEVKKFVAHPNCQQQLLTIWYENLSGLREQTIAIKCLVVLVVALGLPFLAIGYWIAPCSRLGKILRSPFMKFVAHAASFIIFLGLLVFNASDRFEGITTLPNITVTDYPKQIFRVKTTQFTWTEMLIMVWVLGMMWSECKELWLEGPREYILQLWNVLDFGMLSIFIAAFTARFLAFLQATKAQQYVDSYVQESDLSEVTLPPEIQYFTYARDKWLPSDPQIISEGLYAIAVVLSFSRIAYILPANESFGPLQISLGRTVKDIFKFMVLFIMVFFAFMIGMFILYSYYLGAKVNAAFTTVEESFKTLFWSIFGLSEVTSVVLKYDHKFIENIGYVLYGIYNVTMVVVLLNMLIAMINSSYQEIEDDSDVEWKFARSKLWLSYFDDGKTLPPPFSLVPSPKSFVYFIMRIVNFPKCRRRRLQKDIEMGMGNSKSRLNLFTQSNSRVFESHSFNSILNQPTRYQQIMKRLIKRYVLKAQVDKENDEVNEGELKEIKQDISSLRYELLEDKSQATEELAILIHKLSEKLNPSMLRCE
Assay: OAG-induced Ca2+ entry, fluo-4 fluorometric imaging plate reader, TRPC3 CHO cells
Type: cell-based
Conditions: for IC50: TRPC3 CHO cells, fluo-4, area under the curve, 10 min pre-incubation, read-out: IC50, inhibition of OAG-induced Ca2+ entry via TRPC3; for Hill slope n, inhibition of TRPC3-mediated Ca2+ entry: fit to Hill model
Description: hTRPC3 (GenBank accession number NM_003305) was stably expressed in chinese hamster ovary (CHO) cells using a proprietary high expression vector (Steinbeis -Transferzentrum für Angewandte Biologische Chemie, Mannheim, Germany). Cells grown to an almost confluent monolayer on black poly-D-lysine coated 96-well plates (Greiner, Frickenhausen, Germany) were washed with standard extracellular solution (140 mM NaCl, 1 mM MgCl2, 5.4 mM KCl, 2 mM CaCl2, 10 mM HEPES, 10 mM glucose, pH 7.35) and stained (30 min, room temperature) with dye solution (2 μM fluo-4 AM, 0.02% pluronic F127, 0.1% bovine serum albumin in standard extracellular solution). Cells were washed and either incubated with standard extracellular solution only or with different concentrations of test compounds for 10 min. Fluo-4 fluorescence was excited at 488 nm with an argon laser and measured using a fluorometric imaging plate reader (Molecular Devices, Sunnyvale, USA). All fluorometric measurements were performed at room temperature. […] Baseline fluorescence in non-OAG-stimulated cells and OAG-stimulated Ca^2+ influx into control cells not treated with inhibitors were defined as 0% and 100% influx, respectively. For statistical analysis, analysis of variance was performed with Origin 6.0 software (Microcal Software Inc., Northampton, USA). […] Averaged data is expressed as means ± SEM.

Effect on TRPC3-mediated Ca2+ entry (30 µM pre-incubation, OAG-induced)	IC50	Hill slope n, inhibition of TRPC3-mediated Ca2+ entry	Structure (SMILES)
significantly reduced	3 to 5 µM and 3 µM	1.67	C#C[C@]1(OC(C)=O)CC[C@H]2[C@@H]3CCC4=CC(=NO)CC[C@@H]4[C@H]3CC[C@@]21CC (mixture of isomers) [norgestimate]
–	12.4 µM	3.6	CC(=O)[C@H]1CC[C@H]2[C@@H]3CCC4=CC(=O)CC[C@]4(C)[C@H]3CC[C@]12C [progesterone]
